Results as given in patent US4490370A, “Naphthylglycyl cephalosporin derivatives” (priority 1983, dated 1984).
Like-named read-outs stand apart in the source and are kept apart here.

Tests used:
[1] = tested on: Peptostreptococcus anaerobius; assay: Susceptibility of anaerobic cocci, agar-dilution, 24 hour MIC; type: cell-based
Text: (§1) A typical and preferred compound provided by this invention is 7-(2-naphthylglycylamido)-3-methyl-3-cephem-4-carboxylic acid, the compound of Example 3. The antibacterial activity of this compound and several others of the invention has been determined in standard in vitro agar dilution assays against a variety of gram positive microorganisms. The following Tables present typical minimum inhibitory concentrations (MIC's) in μg/ml for the compounds when evaluated against the indicated microorganisms. MIC's for several known compounds are also presented for comparison.
(§2) Susceptibility of Anaerobic Cocci
(§3) Isolates by the Agar-Dilution
(§4) Method-24 hour MIC's (μg/ml)

[2] = tested on: Peptococcus Asaccharolyticus; assay: as above; type: cell-based; conditions: Peptoniphilus asaccharolyticus, isolate 1344
Text: as §1, §2, §3, §4

Peptococcus Constellatus = assay: as above; type: cell-based; conditions: Streptococcus constellatus, isolate 1468
Text: as §1, §2, §3, §4

P. magnus = assay: as above; type: cell-based; conditions: Finegoldia magna
Text: as §1, §2, §3, §4

[3] = tested on: Peptostreptococcus intermedius; assay: as above; type: cell-based
Text: as §1, §2, §3, §4

P. prevoti = assay: as above; type: cell-based; conditions: isolate 1293
Text: as §1, §2, §3, §4

Strep. A = assay: Agar dilution MIC, Strep. A; type: cell-based; conditions: Table I, strain C203; read-out: MIC
Text: as §1

[4] = Oral absorption and blood levels in rodents; type: in vivo
Klebsiella = assay: Agar dilution MIC, Klebsiella; type: cell-based; conditions: Klebsiella; Table I, strain X26; read-out: MIC
Text: as §1

B. Fragilis = assay: Expanded spectrum MIC, B. Fragilis; type: cell-based; conditions: Bacteroides fragilis, Table III, read-out: MIC
Text: as §1

Strep. PN = assay: Agar dilution MIC, Strep. PN; type: cell-based; conditions: Table I, strain PARK; read-out: MIC
Text: (§5) The following Tables present typical minimum inhibitory concentrations (MIC's) in μg/ml for the compounds when evaluated against the indicated microorganisms.

Staph. aureus = assay: Agar dilution MIC, Staph. aureus; type: cell-based; conditions: Staphylococcus aureus, read-out: MIC
Text: as §5

[5] = tested on: β-lactamase (organism 265A); assay: Stability to β-lactamases, 265A; type: biochemical; conditions: lower numbers mean greater stability
β-lactamase (TEM) = assay: Stability to β-lactamases, TEM; type: biochemical; conditions: lower numbers mean greater stability
Bacteroides fragilis = assay: Susceptibility of anaerobes, agar-dilution, 24 hour MIC; type: cell-based
Propionibacterum acnes = assay: as above; type: cell-based
Text: as §1, §2, §3, §4

H. influ. = assay: Agar dilution MIC, H. influenza; type: cell-based; conditions: Table III, strain 102; read-out: MIC
Text: as §5

[6] = tested on: β-lactamase (organism 1082E); assay: Stability to β-lactamases, 1082E; type: biochemical; conditions: lower numbers mean greater stability
[7] = tested on: β-lactamase (organism PS185); assay: Stability to β-lactamases, PS185; type: biochemical; conditions: lower numbers mean greater stability
[8] = tested on: β-lactamase (organism 1313G); assay: Stability to β-lactamases, 1313G; type: biochemical; conditions: lower numbers mean greater stability
[9] = Plasma concentration after intravenous dose in rats; type: in vivo; conditions: rat, intravenous 20 mg/kg
Description: For example, when 7-(2-naphthylglycylamido)-3-methyl-3-cephem-4-carboxylic acid was administered to rats at an intravenous dose of 20 mg/kg, the plasma concentration after one hour was 18.6 μg/ml; after four hours, 14.1 μg/ml; and after twenty-four hours, the plasm level was still measured as 1.96 μg/ml.

Staph. epi = assay: Agar dilution MIC, Staph. epi; type: cell-based; conditions: read-out: MIC
Text: as §5

SMILES: CC1=C(C(=O)O)N2C(=O)C(NC(=O)[C@H](N)c3ccc4ccccc4c3)C2SC1 (stereo partly drawn) [Example 3, D-7-(2-naphthylglycylamido)-3-methyl-3-cephem-4-carboxylic acid tetrahydrate]
- MIC ([1]; isolate 8): ≤ 0.125 µg/mL
- MIC ([1]; isolate 52): 0.25 µg/mL
- MIC ([1]; isolate 1477): ≤ 0.125 µg/mL
- MIC [2]: ≤ 0.125 µg/mL
- MIC (Peptococcus Constellatus): 0.25 µg/mL
- MIC (P. magnus; isolate 1401): 0.25 µg/mL
- MIC (P. magnus; isolate 1477): 0.5 µg/mL
- MIC ([3]; isolate 1264): 1 µg/mL
- MIC ([3]; isolate 1524): 1 µg/mL
- MIC ([3]; isolate 1624): 1 µg/mL
- MIC (P. prevoti): 0.5 µg/mL
- MIC (Strep. A): 0.5 µg/mL
- blood levels compared with cefaclor and cephalexin [4]: higher and longer blood levels than cefaclor and cephalexin
- oral absorption ([4]; oral): efficiently orally absorbed
- MIC (Klebsiella): 2 µg/mL
- MIC (B. Fragilis; strain 180-821): 2 µg/mL
- MIC (B. Fragilis; strain 10668): 32 µg/mL
- MIC (B. Fragilis; strain 10683): 32 µg/mL
- MIC (B. Fragilis; strain 10695): 4 µg/mL
- MIC (B. Fragilis; strain 10750): 16 µg/mL
- MIC (B. Fragilis; strain 10774): 16 µg/mL
- MIC (B. Fragilis; strain 10817): 2 µg/mL
- MIC (B. Fragilis; strain 10837): 16 µg/mL
- MIC (B. Fragilis; strain 107266): 16 µg/mL
- MIC (B. Fragilis; strain 107268): 8 µg/mL
- MIC (Strep. PN): 0.5 µg/mL
- MIC (Staph. aureus; Table I, strain V41): 8 µg/mL
- MIC (Staph. aureus; Table I, strain X1.1): 0.5 µg/mL
- MIC (Staph. aureus; Table I, strain X400): 64 µg/mL
- MIC (Staph. aureus; Table II, strain S224): 0.5 µg/mL
- MIC (Staph. aureus; Table II, strain S225): 0.5 µg/mL
- MIC (Staph. aureus; Table II, strain S226): 1 µg/mL
- MIC (Staph. aureus; Table II, strain S227): 1 µg/mL
- MIC (Staph. aureus; Table II, strain S228): 0.5 µg/mL
- MIC (Staph. aureus; Table II, strain S229): 1 µg/mL
- MIC (Staph. aureus; Table II, strain S230): 0.5 µg/mL
- MIC (Staph. aureus; Table II, strain S231): 0.5 µg/mL
- MIC (Staph. aureus; Table II, strain S234): 1 µg/mL
- MIC (Staph. aureus; Table II, strain S237): 1 µg/mL
- MIC (Staph. aureus; Table II, strain S238): 1 µg/mL
- MIC (Staph. aureus; Table II, strain S239): 1 µg/mL
- MIC (Staph. aureus; Table III expanded spectrum, strain 8725): 0.25 µg/mL
- MIC (Staph. aureus; Table III, strain 8438): 0.25 µg/mL
- MIC (Staph. aureus; Table III, strain 8787): 0.25 µg/mL
- MIC (Staph. aureus; Table III, strain 9050): 0.5 µg/mL
- MIC (Staph. aureus; Table III, strain 9136): 0.25 µg/mL
- MIC (Staph. aureus; Table III, strain 9290): 1 µg/mL
- MIC (Staph. aureus; Table III, strain 9767): 1 µg/mL
- Stability to β-lactamases [5]: 50
- Stability to β-lactamases (β-lactamase (TEM)): 3
- MIC (Bacteroides fragilis; isolate 200): 32 µg/mL
- MIC (Bacteroides fragilis; isolate 206): 16 µg/mL
- MIC (Bacteroides fragilis; isolate 3625): 16 µg/mL
- MIC (Bacteroides fragilis; isolate 7371A): 16 µg/mL
- MIC (Bacteroides fragilis; isolate 19671): > 64 µg/mL
- MIC (Bacteroides fragilis; isolate 19681): 16 µg/mL
- MIC (Propionibacterum acnes; isolate 44): 4 µg/mL
- MIC (Propionibacterum acnes; isolate 79): 8 µg/mL
- MIC (Propionibacterum acnes; isolate 101): 8 µg/mL
- MIC (Propionibacterum acnes; isolate 104): 8 µg/mL
- MIC (Propionibacterum acnes; isolate 105): 4 µg/mL
- MIC (Propionibacterum acnes; isolate 5191): 0.25 µg/mL
- MIC (Propionibacterum acnes; isolate 5227): 0.25 µg/mL
- MIC (Propionibacterum acnes; isolate 5228): 8 µg/mL
- MIC (Propionibacterum acnes; isolate 5229): 8 µg/mL
- MIC (Propionibacterum acnes; isolate 5246): 8 µg/mL
- MIC (H. influ.): 32 µg/mL
- Stability to β-lactamases [6]: 26
- Stability to β-lactamases [7]: 25
- Stability to β-lactamases [8]: 256
- concentration at 1 h ([9]; 1 hour, read-out: plasma concentration after one hour): 18600 ng/mL
- concentration at 4 h ([9]; 4 hours, read-out: plasma concentration after four hours): 14100 ng/mL
- concentration at 24 h ([9]; 24 hours, read-out: plasma level after twenty-four hours): 1960 ng/mL
- MIC (Staph. epi; Table I, strain 222): 0.5 µg/mL
- MIC (Staph. epi; Table I, strain EPI1): 1 µg/mL
- MIC (Staph. epi; Table II expanded spectrum, strain EPI1): 8 µg/mL
- MIC (Staph. epi; Table II, strain 219): 0.5 µg/mL
- MIC (Staph. epi; Table II, strain 269): 2 µg/mL
- MIC (Staph. epi; Table II, strain 270): 4 µg/mL
- MIC (Staph. epi; Table II, strain 285): 2 µg/mL
- MIC (Staph. epi; Table II, strain 286): 1 µg/mL
